According to patent US7951838B2, “Substituted spirocyclic chromanamine compounds as Beta-Secretase modulators and methods of use” (Amgen Inc., priority 2007, dated 2011):

What was measured:
BACE [1] = target: T1, BACE (Homo sapiens, UniProt P56817); assay: In vitro enzymatic BACE FRET assay (Enzyme Assay); type: biochemical; conditions: pH 4.2, enzyme 0.2 nM, FRET substrate 50 nM
T1 construct: Cells stably expressing Amyloid Precursor Protein (APP) were plated at a density of 40K cells/well in 96 well plates; endogenous in cells
Procedure: In Vitro Enzymatic BACE FRET (Fluorescence Resonance Energy Transfer) Assay (Enzyme Assay)
Assay buffer is 0.05 M acetate, pH 4.2, 10% DMSO final, 100 uM genapol (which is a nonionic detergent, below it's Critical Micelle Concentration). Enzyme (0.2 nM) is pre-incubated for one hour with inhibitors added in 1 uL of DMSO. Then the assay is started by the addition of FRET substrate (50 nM) and incubated for one hour. The FRET assay is terminated with by addition of Tris buffer, which raises the pH to neutrality, and the fluorescence is determined The FRET substrate is a peptide with commercially available fluorophore and quencher, on opposite sides of the BACE cleavage site. Proteolytic cleavage of the FRET substrate releases quenching of fluorescence (excitation 488 nm and […]).

BACE [2] = target: T1, BACE; assay: BACE cell-based assay (Cell Assay), inhibition of Aβ40 by sandwich ELISA; conditions: Aβ40 in conditioned medium of cells stably expressing APP, 24 h incubation
Procedure: BACE Cell-Based Assay (Cell Assay)
The cell-based assay measures inhibition or reduction of Aβ40 in conditioned medium of test compound treated cells expressing amyloid precursor protein.
Cells stably expressing Amyloid Precursor Protein (APP) were plated at a density of 40K cells/well in 96 well plates (Costar). The cells were cultivated for 24 hours at 37° C. and 5% CO2 in DMEM supplemented with 10% FBS. The test compounds were then added to cells in 10-point dose response concentrations with the starting concentration being either 100 μM or 10 μM. The compounds were diluted from stock solutions in DMSO and the final DMSO concentration of the test compounds on cells was 0.1%. After 24 h of incubation with the test compounds the supernatant conditioned media was collected and the Aβ40 levels were determined using a sandwich ELISA. The IC50 of the compound was calculated from the percent of control or percent inhibition of Aβ40 as a function of the concentration of the test compound.
The sandwich ELISA to detect Aβ40 was performed in 96 well microtiter plates, which were pre-treated with goat anti-rabbit IgG (Pierce). The capture and detecting antibody pair that were used to detect Aβ40 from cell supernatants were affinity purified pAb40 (Biosource) and biotinylated 6E10 (Signet Labs Inc.), respectively. The optimal concentration for the pAb40 antibody was 3 μg/ml in Superblock/TBS (Pierce) that was supplemented with 0.05% Tween 20 (Sigma). Optimal concentration for the detection antibody 6E10-biotinylated was 0.5 μg/ml in Superblock/TBS (Pierce) that had been supplemented with 2% normal goat serum and 2% normal mouse serum.
Cellular supernatants were incubated with the capture antibody for 3 h at 4° C., followed by 3 wash steps in TBS-tween (0.05%). The detecting antibody incubation was for 2 h at 4° C., again followed by the wash steps as described previously. The final readout of the ELISA is Time-Resolved Fluorescence (counts per minute) using Delfia reagents Streptavidin-Europium and Enhancement solutions (Perkin Elmer) and the Victor 2 multilabel counter (Perkin Elmer).

T1 sequence (P56817 46-501): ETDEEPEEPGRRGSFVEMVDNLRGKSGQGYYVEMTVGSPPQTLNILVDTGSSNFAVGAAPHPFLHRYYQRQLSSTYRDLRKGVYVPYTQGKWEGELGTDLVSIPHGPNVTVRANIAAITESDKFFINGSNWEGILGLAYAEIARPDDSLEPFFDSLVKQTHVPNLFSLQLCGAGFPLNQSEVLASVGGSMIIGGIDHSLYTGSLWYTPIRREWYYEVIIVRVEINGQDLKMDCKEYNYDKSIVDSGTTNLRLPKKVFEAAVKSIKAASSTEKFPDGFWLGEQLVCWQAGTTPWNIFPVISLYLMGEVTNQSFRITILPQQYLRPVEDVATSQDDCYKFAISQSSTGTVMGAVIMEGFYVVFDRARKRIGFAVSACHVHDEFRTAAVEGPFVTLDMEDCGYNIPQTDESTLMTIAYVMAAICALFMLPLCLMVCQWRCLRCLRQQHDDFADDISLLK

Row | Compound | IC50 (BACE [1]) [µM] | IC50 (BACE [2]) [µM]
1 | CC(C)(C)Cc1cnc2c(c1)[C@@H](NC[C@@H](O)[C@H](Cc1ccc(F)cc1)Nc1ncnc3ccsc13)CC1(CCC1)O2 [Example 30, (2R,3S)-1-(((4′S)-6′-(2,2-dimethylpropyl)-3′,4′-dihydrospiro[cyclobutane-1,2′-pyrano[2,3-b]pyridin]-4′-yl)amino)-4-(4-fluorophenyl)-3-(thieno[3,2-d]pyrimidin-4-ylamino)-2-butanol] | 5 to 10 | 10 to 25
2 | CC(C)(C)Cc1cnc2c(c1)[C@@H](NC[C@@H](O)[C@H](Cc1ccc(F)cc1)Nc1cc(Cl)ncn1)CC1(CCC1)O2 [Example 28, (2R,3S)-3-((6-chloro-4-pyrimidinyl)amino)-1-(((4′S)-6′-(2,2-dimethylpropyl)-3′,4′-dihydrospiro[cyclobutane-1,2′-pyrano[2,3-b]pyridin]-4′-yl)amino)-4-(4-fluorophenyl)-2-butanol] | 1 to 5 | 10 to 25
3 | CCOc1c(N[C@@H](Cc2cccc(F)c2)[C@H](O)CN[C@H]2CC3(CCC3)Oc3ncc(CC(C)(C)C)cc32)c(=O)c1=O [Example 45, 3-(((1S,2R)-3-(((4′S)-6′-(2,2-dimethylpropyl)-3′,4′-dihydrospiro[cyclobutane-1,2′-pyrano[2,3-b]pyridin]-4′-yl)amino)-1-((3-fluorophenyl)methyl)-2-hydroxypropyl)amino)-4-(ethyloxy)-3-cyclobutene-1,2-dione] | < 0.1 | 0.1 to 1
4 | CC(C)(C)Cc1cnc2c(c1)[C@@H](NC[C@@H](O)[C@H](Cc1cc(F)cc(F)c1)Nc1ccnc(Cl)n1)CC1(CCC1)O2 [Example 24, (2R,3S)-3-((2-chloro-4-pyrimidinyl)amino)-4-(3,5-difluorophenyl)-1-(((4′S)-6′-(2,2-dimethylpropyl)-3′,4′-dihydrospiro[cyclobutane-1,2′-pyrano[2,3-b]pyridin]-4′-yl)amino)-2-butanol] | < 0.1 | 0.1 to 1
5 | CCc1ccc2c(c1)[C@@H](NC[C@@H](O)[C@H](Cc1ccccc1)Nc1ccccc1F)CC1(CCCC1)O2 [Example 32, (2R,3S)-1-(((4S)-6-ethyl-3,4-dihydrospiro[chromene-2,1′-cyclopentan]-4-yl)amino)-3-((2-fluorophenyl)amino)-4-phenyl-2-butanol] | 5 to 10 | 10 to 25
6 | CCc1ccc2c(c1)[C@@H](NC[C@@H](O)[C@H](Cc1ccccc1)Nc1nc3ccccc3s1)CC1(CCC1)O2 [Example 42, (2R,3S)-3-(1,3-benzothiazol-2-ylamino)-1-(((4S)-6-ethyl-3,4-dihydrospiro[chromene-2,1′-cyclobutan]-4-yl)amino)-4-phenyl-2-butanol] | 10 to 25 | –
7 | CC(C)(C)Cc1cnc2c(c1)[C@@H](NC[C@H](O)[C@H](Cc1ccccc1)Nc1ccccc1F)CC1(CCC1)O2 [Example 41, (2S,3S)-1-(((4′S)-6′-(2,2-dimethylpropyl)-3′,4′-dihydrospiro[cyclobutane-1,2′-pyrano[2,3-b]pyridin]-4′-yl)amino)-3-((2-fluorophenyl)amino)-4-phenyl-2-butanol] | 10 to 25 | 10 to 25
8 | CCc1ccc2c(c1)[C@@H](NC[C@@H](O)[C@H](Cc1ccccc1)Nc1cnccn1)CC1(CCCC1)O2 [Example 40, (2R,3S)-1-(((4S)-6-ethyl-3,4-dihydrospiro[chromene-2,1′-cyclopentan]-4-yl)amino)-4-phenyl-3-(2-pyrazinylamino)-2-butanol] | – | 10 to 25
9 | CCc1ccc2c(c1)[C@@H](NC[C@@H](O)[C@H](Cc1ccccc1)Nc1ccncc1)CC1(CCC1)O2 [Example 44, (2R,3S)-1-(((4S)-6-ethyl-3,4-dihydrospiro[chromene-2,1′-cyclobutan]-4-yl)amino)-4-phenyl-3-(4-pyridinylamino)-2-butanol] | – | 1 to 5
10 | CC(C)(C)Cc1cnc2c(c1)[C@@H](NC[C@@H](O)[C@H](Cc1cc(F)cc(F)c1)Nc1nccn3cnnc13)CC1(CCC1)O2 [Example 21, (2R,3S)-4-(3,5-difluorophenyl)-1-(((4′S)-6′-(2,2-dimethylpropyl)-3′,4′-dihydrospiro[cyclobutane-1,2′-pyrano[2,3-b]pyridin]-4′-yl)amino)-3-([1,2,4]triazolo[4,3-a]pyrazin-8-ylamino)-2-butanol] | 0.1 to 1 | < 0.1

Continued, values first:

Row | IC50 (BACE [1]) [µM] | IC50 (BACE [2]) [µM] | Compound
11 | 1 to 5 | 0.1 to 1 | CCc1ccc2c(c1)[C@@H](NC[C@@H](O)[C@H](Cc1cccc(C#N)c1)Nc1ccccc1F)CC1(CCC1)O2 [Example 27, 3-((2S,3R)-4-(((4S)-6-ethyl-3,4-dihydrospiro[chromene-2,1′-cyclobutan]-4-yl)amino)-2-((2-fluorophenyl)amino)-3-hydroxybutyl)benzonitrile]
12 | 10 to 25 | 10 to 25 | CCc1ccc2c(c1)[C@@H](NC[C@@H](O)[C@H](Cc1ccccc1)Nc1ccc(Cl)nn1)CC1(CCC1)O2 [Example 39, (2R,3S)-3-((6-chloro-3-pyridazinyl)amino)-1-(((4S)-6-ethyl-3,4-dihydrospiro[chromene-2,1′-cyclobutan]-4-yl)amino)-4-phenyl-2-butanol]
13 | 5 to 10 | 10 to 25 | CSc1nc(Cl)cc(N[C@@H](Cc2ccc(F)cc2)[C@H](O)CN[C@H]2CC3(CCC3)Oc3ncc(CC(C)(C)C)cc32)n1 [Example 34, (2R,3S)-3-((6-chloro-2-(methylthio)-4-pyrimidinyl)amino)-1-(((4′S)-6′-(2,2-dimethylpropyl)-3′,4′-dihydrospiro[cyclobutane-1,2′-pyrano[2,3-b]pyridin]-4′-yl)amino)-4-(4-fluorophenyl)-2-butanol]
14 | 0.1 to 1 | 1 to 5 | CC(C)(C)Cc1cnc2c(c1)[C@@H](NC[C@@H](O)[C@H](Cc1cc(F)cc(F)c1)Nc1ncccn1)CC1(CCC1)O2 [Example 25, (2R,3S)-4-(3,5-difluorophenyl)-1-(((4′S)-6′-(2,2-dimethylpropyl)-3′,4′-dihydrospiro[cyclobutane-1,2′-pyrano[2,3-b]pyridin]-4′-yl)amino)-3-(2-pyrimidinylamino)-2-butanol]
15 | 5 to 10 | 10 to 25 | CCc1ccc2c(c1)[C@@H](NC[C@@H](O)[C@H](Cc1ccccc1)Nc1ccccc1F)CC1(CCC1)O2 [Example 31, (2R,3S)-1-(((4S)-6-ethyl-3,4-dihydrospiro[chromene-2,1′-cyclobutan]-4-yl)amino)-3-((2-fluorophenyl)amino)-4-phenyl-2-butanol]
16 | 10 to 25 | 5 to 10 | CCc1ccc2c(c1)[C@@H](NC[C@@H](O)[C@H](Cc1ccccc1)Nc1nccc(CC)n1)CC1(CCC1)O2 [Example 37, (2R,3S)-1-((S)-6-ethyl-2,2-spirocyclobutyl-chroman-4-ylamino)-4-phenyl-3-(4-ethylpyrimidin-2-ylamino)butan-2-ol]
17 | 10 to 25 | 10 to 25 | CCc1ccc2c(c1)[C@@H](NC[C@@H](O)[C@H](Cc1ccccc1)Nc1nccc(C(F)(F)F)n1)CC1(CCC1)O2 [Example 33, (2R,3S)-1-((S)-6-ethyl-2,2-spirocyclobutyl-chroman-4-ylamino)-4-phenyl-3-(4-(trifluoromethyl)pyrimidin-2-ylamino)butan-2-ol]
18 | 10 to 25 | 1 to 5 | CCc1ccc2c(c1)[C@@H](NC[C@@H](O)[C@H](Cc1ccccc1)Nc1nc3ccccc3o1)CC1(CCC1)O2 [Example 36, (2R,3S)-3-(1,3-benzoxazol-2-ylamino)-1-(((4S)-6-ethyl-3,4-dihydrospiro[chromene-2,1′-cyclobutan]-4-yl)amino)-4-phenyl-2-butanol]
19 | 10 to 25 | 5 to 10 | O[C@H](CN[C@H]1CC2(CCC2)Oc2ccc(Br)cc21)[C@H](Cc1ccccc1)Nc1nccn2cnnc12 [Example 22, (2R,3S)-1-(((4S)-6-bromo-3,4-dihydrospiro[chromene-2,1′-cyclobutan]-4-yl)amino)-4-phenyl-3-([1,2,4]triazolo[4,3-a]pyrazin-8-ylamino)-2-butanol]
20 | 10 to 25 | 10 to 25 | CCc1ccc2c(c1)[C@@H](NC[C@@H](O)[C@H](Cc1ccccc1)Nc1ncccn1)CC1(CCC1)O2 [Example 38, (2R,3S)-1-((S)-6-ethyl-2,2-spirocyclobutyl-chroman-4-ylamino)-4-phenyl-3-(pyrimidin-2-ylamino)butan-2-ol]
